Experiments:
[1] = target: T1, α2-adrenoceptor (Rattus norvegicus, UniProt P22909); assay: Duration of the α2-blocking action (time for antagonism of detomidine mydriasis to fall by half, oral); format: in vivo; conditions: oral at equipotent doses, time taken for antagonism of 0,1 mg/kg detomidine mydriasis to fall by half
T1 construct: In anaesthetized rat, a standard dose of detomidine was administered intravenously; from tissue; host or cells: whole anaesthetized rat (pupil response, in vivo)
T1 sequence (P22909 1-465): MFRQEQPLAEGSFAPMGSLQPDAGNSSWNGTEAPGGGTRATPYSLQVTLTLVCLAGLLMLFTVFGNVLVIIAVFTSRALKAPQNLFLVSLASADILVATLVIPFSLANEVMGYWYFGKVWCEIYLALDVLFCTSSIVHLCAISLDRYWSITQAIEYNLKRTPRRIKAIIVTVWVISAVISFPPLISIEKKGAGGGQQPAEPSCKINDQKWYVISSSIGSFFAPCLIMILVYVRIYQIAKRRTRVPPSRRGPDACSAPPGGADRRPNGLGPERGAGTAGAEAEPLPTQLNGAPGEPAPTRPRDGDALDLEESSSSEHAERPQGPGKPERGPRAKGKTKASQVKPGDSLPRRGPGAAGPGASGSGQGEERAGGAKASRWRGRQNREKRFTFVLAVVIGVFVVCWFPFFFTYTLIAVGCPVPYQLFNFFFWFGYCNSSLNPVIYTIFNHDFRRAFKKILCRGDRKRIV
Experimental: It is known that in the rat α2 -agonists induce dilatation of the pupil (mydriasis) which effect is transmitted via postsynaptic α2 -receptors. In anaesthetized rat, a standard dose of detomidine was administered intravenously. Thereafter increasing doses of the studied antagonist were injected intravenously and the reversal of detomidine-induced mydriasis was followed. The ED50 value of the antagonist, i.e. the dose producing a 50 per cent reversal, was determined.
The duration of the α2 -blocking action of the compounds was determined as follows: the antagonists were administered orally at eqvipotent doses to groups of 4 rats 1, 2, 4, 7 or 16 hours before induction of anaesthesia and challenge with cumulative i.v. dosing of detomidine. By calculating the percentage antagonism of the mydriatic effect of 0,1 mg/kg detomidine for each pretreatment group, a time-effect relationship was established. This in turn permitted the measurement of the time taken for the antagonist effect to fall by half.

[2] = target: T2, α1-adrenoceptor (Rattus norvegicus, UniProt P43140); assay: α1-adrenoceptor antagonism, phenylephrine-induced contraction of isolated anococcygeus muscle; conditions: vs phenylephrine, read-out: α1-antagonism (pA2 vs phenylephrine) (converted)
T2 sequence (P43140 1-466): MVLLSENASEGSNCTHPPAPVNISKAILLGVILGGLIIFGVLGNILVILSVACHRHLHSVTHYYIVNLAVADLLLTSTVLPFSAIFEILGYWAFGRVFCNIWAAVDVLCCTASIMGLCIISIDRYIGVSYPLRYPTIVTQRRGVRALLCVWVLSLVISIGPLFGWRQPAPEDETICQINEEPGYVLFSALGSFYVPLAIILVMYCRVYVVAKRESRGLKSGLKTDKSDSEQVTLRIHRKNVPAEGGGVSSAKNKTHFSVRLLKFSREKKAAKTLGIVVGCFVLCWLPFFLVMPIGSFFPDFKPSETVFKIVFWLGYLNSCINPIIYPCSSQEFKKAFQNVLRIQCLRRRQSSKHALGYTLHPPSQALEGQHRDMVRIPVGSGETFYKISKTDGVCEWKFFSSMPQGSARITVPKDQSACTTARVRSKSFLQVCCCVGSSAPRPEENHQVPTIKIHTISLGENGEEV
Experimental: 2. α1 -adrenoceptor antagonism
To obtain information also on the selectivity of the antagonist between α1 - and α2 -receptors, its ability to inhibit α1 -receptors was determined by means of isolated anococcygeus muscle (rat). The reference substances were now phenylephrine, a known α1 -agonist, and prazosin, a known α1 -antagonist. To determine α1 -antagonism, muscular contraction was induced by phenylephrine and the pA2 value of the studied compound was determined (Arunlakshana & Schild, Br. J. Pharmacol. 14, 48-62, 1959).

[3] = system: isolated rat pancreas (postsynaptic α2-adrenoceptors); assay: Potentiation of insulin release from isolated perfused pancreas; design: species or system rat (Sprague-Dawley); conditions: 1 × 10^-6 M, 11 mM glucose; for Insulin in the perfusate, -5 min: before compound addition
Experimental: 3. Potentiation of insulin release from isolated pancreas
Samples for determination of insulin concentration in the perfusate were collected before and during 30 min after adding the studied compounds+glucose. Insulin was measured by a RIA-kit (NOVO).

[4] = target: T1, α2-adrenoceptor; assay: Reversal of detomidine-induced mydriasis in anaesthetized rat (α2-adrenoceptor antagonism); format: in vivo; conditions: dose producing 50 per cent reversal of detomidine-induced mydriasis; for ED50: iv

Structure (SMILES) | Duration of α2-antagonism [1] | Kb [2] | Insulin in the perfusate, +1 min [3] | Insulin in the perfusate, +10 min [3] | Insulin in the perfusate, +20 min [3] | Insulin in the perfusate, +30 min [3] | Insulin in the perfusate, -5 min [3] | ED50 [4] | α2-antagonism (ED50 vs detomidine) ([4]; i.v.)
CCC1(c2cnc[nH]2)Cc2ccccc2C1 [atipamezole, reference compound] | 1.0 h | > 10 µM | 5.0 ng/mL | 3.0 ng/mL | 6.3 ng/mL | 15.1 ng/mL | < 0.1 ng/mL |  | 
CCC1(c2cn(C)cn2)Cc2ccccc2C1 [compound 1, 4-(2-ethyl-2,3-dihydro-1H-inden-2-yl)-1-methyl-1H-imidazole] | 2.0 h | 7.94 µM |  |  |  |  |  | 0.3 mg/kg | 
CCn1cnc(C2(CC)Cc3ccccc3C2)c1 [compound 2, 1-ethyl-4-(2-ethyl-2,3-dihydro-1H-inden-2-yl)-1H-imidazole] |  | 6.31 µM |  |  |  |  |  | 0.2 mg/kg | 
CCCn1cnc(C2(CC)Cc3ccccc3C2)c1 [compound 3, 4-(2-ethyl-2,3-dihydro-1H-inden-2-yl)-1-n-propyl-1H-imidazole] |  | 6.31 µM |  |  |  |  |  | 0.3 mg/kg | 
CCC1(c2cn(Cc3ccccc3)cn2)Cc2ccccc2C1 [compound 4, 1-benzyl-4-(2-ethyl-2,3-dihydro-1H-inden-2-yl)-1H-imidazole] |  | 1 µM |  |  |  |  |  | 2 mg/kg | 
CCC1(c2cn(C)cn2)Cc2ccccc2C1=O (stereo not drawn) [compound 5, 2-ethyl-2-(1-methyl-1H-imidazol-4-yl)-1-indanone] | 11.0 h | > 10 µM |  |  |  |  |  | 0.1 mg/kg | 
OCC1(c2c[nH]cn2)Cc2ccccc2C1 [compound 6, [2,3-dihydro-2-(1H-imidazol-4-yl)-1H-inden-2-yl]methanol] |  | > 10 µM |  |  |  |  |  | 0.2 mg/kg | 
COCC1(c2cn(C)cn2)Cc2ccccc2C1 [compound 7, 4-(2,3-dihydro-2-methoxymethyl-1H-inden-2-yl)-1-methyl-1H-imidazole] | 7.0 h | > 10 µM | 26.0 ng/mL | 11.5 ng/mL | 15.9 ng/mL | 22.0 ng/mL | < 0.1 ng/mL | 0.3 mg/kg | 
CCCC1(c2cn(CC)cn2)Cc2ccccc2C1 [compound 8, 1-ethyl-4-(2,3-dihydro-2-n-propyl-1H-inden-2-yl)-1H-imidazole] |  | > 10 µM |  |  |  |  |  | 0.3 mg/kg | 
CCCC1(c2cn(C)cn2)Cc2ccccc2C1 [compound 9, 4-(2,3-dihydro-2-n-propyl-1H-inden-2-yl)-1-methyl-1H-imidazole] |  | > 10 µM |  |  |  |  |  | 0.3 mg/kg | 
CCn1cnc(C2(CO)Cc3ccccc3C2)c1 [compound 10, [2-(1-ethyl-1H-imidazol-4-yl)-2,3-dihydro-1H-inden-2-yl]methanol] | 7.0 h | > 10 µM |  |  |  |  |  | 0.3 mg/kg | 
CCn1cnc(C2(COC)Cc3ccccc3C2)c1 [compound 11, 1-ethyl-4-(2,3-dihydro-2-methoxymethyl-1H-inden-2-yl)-1H-imidazole] | 7.0 h | > 10 µM |  |  |  |  |  | 0.1 mg/kg | 
CCn1cnc(C2(CC)Cc3ccccc3C2=O)c1 (stereo not drawn) [compound 12, 2-ethyl-2-(1-ethyl-1H-imidazol-4-yl)-1-indanone] | 16.0 h | > 10 µM |  |  |  |  |  | 0.2 mg/kg | 
c1ccc2c(c1)OCC(C1=NCCN1)O2 (stereo not drawn) [idazoxan, reference compound] | < 1 h | 5.01 µM |  |  |  |  |  |  | 0.02 mg/kg

Reference: patent US5292887A, “Substituted imidazole derivatives and their preparation and use” (priority 1988, dated 1994)
